According to US12071624B2, “Antisense oligonucleotide targeting ARL4C molecule, and nucleic acid drug using antisense oligonucleotide” (OSAKA UNIVERSITY, priority 2018, dated 2024):
[AmNA] = 2',4'-bridged nucleic acid with N-methyl amide bridge (AmNA); d = 2'-deoxy (DNA)

Columns and labels:
HLE cells [1] = assay: Cell proliferation assay (CyQUANT NF) in HLE cells; format: cell-based; conditions: HLE cells transfected with ASO at 25 nM
Protocol: (§1) HLE cells, HCT116 cells, and A549 cells were transfected with 25 to 50 nM ASO and 10 to 20 nM siRNA using Lipofectamine 3000 (Invitrogen, Carlsbad, CA, USA) or RNAiMAX (Invitrogen). Transfected cells were used in the experiments 36 to 48 hours after the end of the transfection.
The cell proliferation assays were performed using the CyQUANT NF Cell Proliferation Assay Kits (Thermo Fisher Scientific), in the way recommended by the manufacturer.
HLE cells were transfected with control ASO, ASO-1316 and ASO-3223 at 25 nM and a proliferation assay was performed; the results of the assay are shown in (e) of FIG. 4.
HLE cells were transfected with control siRNA and PIK3CD siRNA (siRNA against PIK3CD) at 20 nM, and a proliferation assay was performed; the results are shown in (e) of FIG. 5. In addition, an anti-phosphorylated AKT antibody and an anti-AKT antibody as probes were caused to act on cell lysates of HLE cells transfected with control siRNA and PIK3CD siRNA; the results are shown in FIG. 5 (f). HLE cells were transfected with control siRNA and PIK3CD siRNA (siRNA against PIK3CD) at 20 nM and the PIK3CD mRNA amount was measured by real-time PCR; the results are shown in (c) of FIG. 7.

[2] = system: nuclear localization of YAP in HLE cells; assay: Anti-YAP/TAZ antibody staining in HLE cells; format: cell-based; conditions: HLE cells transfected at 25 nM
Protocol: as §1
HLE cells or A549 cells were transfected with control ASO, ASO-1316, and ASO-3223 at 25 nM, and were stained with an anti-YAP/TAZ antibody; the results are shown in (c) of FIG. 6.

FBXL19 mRNA = assay: Off-target gene mRNA by real-time PCR in HLE cells (FBXL19); format: cell-based, human; conditions: HLE cells transfected at 25 nM
Protocol: Potential off-target genes in ARL4C ASO (hARL4C ASO-1316-AmNA [15-mer] (ARL4C ASO-1316) and hARL4C-3223-AmNA [19-mer] (ARL4C ASO-3223)) were identified by using database “Human Genomic plus Transcript (Human G+T)” (Build 2.7.1) as well as basic local alignment search tools (BLAST+programs) using MegaBlast algorithm.
Cell migration assays and quantitative real-time PCR analyses were performed according to the methods reported by Fujii S et al. (Oncogene 2015; 34: 4834-44).
Four genes of neurolysin (NLN), sapiens F-box and leucine-rich repeat protein 19 (FBXL19), keratin-associated protein 15-1 (KRTAP15-1), and sialic acid binding Ig-like lectin 6 (SIGLEC6) were identified as candidates for off-target genes of ASO-1316 and ASO-3223 by in silico analysis. HLE cells were transfected with ASO-1316 and ASO-3223 at 25 nM each, and mRNA amounts of NLN and FBXL19 were measured by real-time PCR; the results are shown in (d) of FIG. 3. […] In addition, KRTAP15-1 and SIGLEC6 were only slightly expressed in the HLE cells (data not shown).

HCT116/Luc cells = assay: Metastatic tumor model, HCT116/Luc cells transplanted into spleen with liver metastasis; format: in vivo, mouse
Protocol: HCT116/Luc cells (2.5×10^5 cells) were suspended in 100 μl of phosphate buffer solution (PBS), and were injected into the spleens of 8-week-old male nude mice (BALB/cAJcl-nu/nu, CLEA Japan, Inc.) under anesthesia. After 19 days had elapsed since the transplantation, ASO (50 μg/body; about 2.5 mg/kg) was subcutaneously administered twice a week. Mice were euthanized 47 days after the HCT116/Luc cell transplantation and were subjected to histological analysis.
Tumor growth analysis was performed by recording bioluminescence images at a frequency of once a week, in the following manner: VivoGlo luciferin (30 mg/ml) was administered intraperitoneally, and 10 minutes after the administration of VivoGlo luciferin, recording was carried out using an IVIS imaging system (Xenogen Corp., Alameda, CA, USA).
In a metastatic tumor model in which HCT116 cells were transplanted into the spleen and the tumor was caused to metastasize to the liver, influences of the subcutaneous administration of ARL4C ASO (ASO-1316 and ASO-3223) on the liver tumor was examined.
In an experiment in the metastatic tumor model, HCT116/Luc cells were injected into the spleens (day 0), luciferase signals were detected in the livers 19 days after the injection; on and after this day, control ASO, ASO-1316, and ASO-3223 were subcutaneously administered at a frequency of twice a week. When 19, 35 and 47 days had elapsed, the fluorescence of luciferase emitted from the liver tumors was observed, and when 47 days had elapsed, fluorescence intensities of luciferase emitted from the liver tumors were quantified with software of IVIS/Kodak; the results are shown in (a) of FIG. 10. […] In addition, when 47 days had elapsed since the transplantation of HCT116/Luc cells, the tumors formed in the livers were observed, and the tumors formed in the livers were immunostained with an anti-ARL4C antibody; the results are shown in (b) of FIG. 10. The tumors formed in the livers were immunostained with an anti-Ki-67 antibody when 47 days had elapsed since the transplantation of HCT116/Luc cells; the results are shown in (c) of FIG. 10.

HLE cells [3] = assay: Primary liver tumor model, HLE cells transplanted into mouse liver; format: in vivo; conditions: for HLE tumorigenesis in the liver: 50 μg/body subcutaneously twice a week from day 0, 29 days after transplantation
Protocol: Pellets of HLE cells (1×10^7 cells) were suspended in 100 μl of Matrigel matrix high concentration (BD Biosciences, San Jose, CA, USA) and were injected into the livers of 8-week-old male nude mice (BALB/cAJcl-nu/nu, CLEA Japan, Inc.) under anesthesia (day 0). From day 0, ASO (50 μg/body; about 2.5 mg/kg) was subcutaneously administered twice a week. Mice were euthanized 29 days after the HLE cell transplantation, and tumors were recovered and subjected to histological analysis.
In a primary liver tumor model in which HLE cells were directly transplanted into the liver, influences of the subcutaneous administration of ARL4C ASO (ASO-1316 and ASO-3223) on liver tumors was examined.
In experiments in the primary liver tumor model, Matrigel containing HEL cells at a high concentration was injected into the liver of a mouse (day 0), and control ASO, ASO-1316, and ASO-3223 were subcutaneously administered on and after day 0, at a frequency of twice a week. The tumor formed in the liver was observed when 29 days had elapsed since the transplantation; the result is shown in (a) of FIG. 8. In addition, when 29 days had elapsed since the transplantation, the tumor formed in the liver was immunostained with an anti-ARL4C antibody and an anti-PIK3CD antibody, the result of which is shown in (b) of FIG. 8, and the tumor was immunostained with an anti-Ki-67 antibody, the result of which is shown in (c) of FIG. 8.

[4] = subcutaneous twice a week, day 29

Substance	cell proliferation (HLE cells [1])	nuclear localization of YAP [2]	FBXL19 mRNA amount (off-target) (FBXL19 mRNA)	antitumor effect in the metastatic tumor model (HCT116/Luc cells; subcutaneous twice a week from day 19)	HLE tumorigenesis in the liver (HLE cells [3])	antitumor effect in vivo (HLE cells [3]; primary liver tumor model)	expression of ARL4C in tumors formed in the liver (immunostaining) (HLE cells [3]; [4])	expression of PIK3CD in tumors formed in the liver (immunostaining) (HLE cells [3]; [4])	number of Ki-67-positive cells in liver tumors (HLE cells [3]; [4])	growth of liver tumors (luciferase) (HCT116/Luc cells; 50 μg/body subcutaneously twice a week from day 19, until day 47)	ARL4C expression level in liver tumor (immunostaining) (HCT116/Luc cells; day 47)	number of Ki-67 positive cells in liver tumor (HCT116/Luc cells; day 47)	tumor size as compared with the control ASO (HLE cells [3]; 50 μg/body subcutaneously twice a week, day 29)	histological damage or cell death in the non-tumor area of the liver (HLE cells [3]; [4])
ASO-3223: 19-mer ARL4C ASO of Table 1, SEQ ID NO 55 (antisense NNNGGTTACAGTATTTNNC; sugars from the 5' end [AmNA]3 d13 [AmNA]2 d1, backbone, methylation of C and the base at N not given here; further chemistry not fully specified)	inhibit HLE cells from proliferating	did not affect the nuclear localization of YAP	did not significantly affect the expression	did not exert an antitumor effect	almost no influence	no antitumor effect was observed	almost no influence	almost no influence	almost no influence	–	–	–	–	–
ASO-1316: 15-mer AmNA/phosphorothioate ASO targeting ARL4C, base sequence SEQ ID NO: 1 gcatacctcaggtaa; Table 1 SEQ ID NO 13 (antisense GCATACCTCAGGTAA; AmNA and phosphorothioate modified, pattern not given here)	inhibit HLE cells from proliferating	did not affect the nuclear localization of YAP	did not significantly affect the expression	–	able to suppress the HLE tumorigenesis	–	suppress the expression of ARL4C and PIK3CD	suppress the expression of ARL4C and PIK3CD	reduce the number of Ki-67-positive cells	the growth of the tumors until 47 days after the injection could be suppressed	decreased ARL4C expression levels	decreased numbers of Ki-67 positive cells	reduce the tumor size by half	did not induce histological damage or cell death
